Source: ChEMBL document CHEMBL1201862, “PubChem BioAssay data set” (2004)
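Dose response: 5 concentrations. Exposure: 48 h. Format: 96-well plates. Endpoint: linear interpolation; highest concentration if not reached. GI50: concentration for 50% inhibition of growth.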 The source made the active and inactive calls. Cut-off read from the data, not from the text of the source: active = GI50 up to about 1.1 µM and inactive = higher.

Legend:
Assay in all cases: growth of human tumour cells (NCI), 48 h
[1] = test system: A549
[2] = test system: CAKI-1
[3] = test system: HCC 2998
[4] = test system: HCT-15
[5] = test system: HOP-92
[6] = test system: IGROV-1
[7] = test system: M14
[8] = test system: MDA-MB-231
[9] = test system: MDA-N
[10] = test system: Malme-3M
[11] = test system: NCI-H522
[12] = test system: OVCAR-4
[13] = test system: PC-3
[14] = test system: SF-295
[15] = test system: SK-MEL-28
[16] = test system: SK-OV-3
[17] = test system: SR
[18] = test system: SW-620
[19] = test system: TK-10
[20] = test system: U-251

SMILES | GI50 [1] | GI50 [2] | GI50 [3] | GI50 [4] | GI50 [5] | GI50 [6] | GI50 [7] | GI50 [8] | GI50 [9] | GI50 [10] | GI50 [11] | GI50 [12] | GI50 [13] | GI50 [14] | GI50 [15] | GI50 [16] | GI50 [17] | GI50 [18] | GI50 [19] | GI50 [20]
C=CCn1c(=O)c(C)cn(/C(=C/C(=O)OCC)C(=O)OCC)c1=O | 30 µM (inactive) | 1.85 µM (inactive) | 17.4 µM (inactive) | 2.97 µM | 3.52 µM (inactive) | 16.4 µM (inactive) | 13.7 µM (inactive) | 15.5 µM (inactive) | 13.9 µM (inactive) | 13.8 µM (inactive) | 1.69 µM (inactive) | 18.3 µM (inactive) | 14.8 µM (inactive) | > 84.1 µM (inactive) | 15.9 µM (inactive) | 60 µM (inactive) | 5.33 µM (inactive) | 3.85 µM (inactive) | 15.4 µM (inactive) | 14.4 µM (inactive)
Nc1c2ccccc2nc2c1ccc1ncccc12 | 21.9 µM (inactive) | 25.7 µM (inactive) | 8.99 µM (inactive) | 14.2 µM | 22.8 µM (inactive) | 12.9 µM (inactive) | 19.4 µM (inactive) | 20.8 µM (inactive) | 28.1 µM (inactive) | 12.4 µM (inactive) | 12 µM (inactive) | 17.9 µM (inactive) | 16.3 µM (inactive) | 21.8 µM (inactive) | 33.7 µM (inactive) | 30.5 µM (inactive) | 12.2 µM (inactive) | 11.7 µM (inactive) | 34.1 µM (inactive) | 39.1 µM (inactive)
COc1cccc2c1C(=O)c1c(O)c3c(c(O)c1C2=O)C[C@@](O)(C(C)=O)C[C@@H]3OC1CC(N(Cc2ccccc2)Cc2ccccc2)C(O)C(C)O1 (stereo not given in full) | 4.55 µM (inactive) | 6.03 µM (inactive) | 29.4 µM (inactive) | 4.95 µM | 17.8 µM (inactive) | 9.55 µM (inactive) | 2.27 µM (inactive) | 10.9 µM (inactive) | 11.4 µM (inactive) | 13.3 µM (inactive) | 10.4 µM (inactive) | 15.1 µM (inactive) | 6.61 µM (inactive) | 13.6 µM (inactive) | 32.8 µM (inactive) | 34 µM (inactive) | 0.101 µM (active) | 4.69 µM (inactive) | 13.7 µM (inactive) | 13.4 µM (inactive)
Cc1cc(Br)cc(C)c1NC(=O)C(=O)Nn1c(S)nc2ccccc2c1=O | > 100 µM (inactive) | > 100 µM (inactive) | > 100 µM (inactive) | > 100 µM | > 100 µM (inactive) | > 100 µM (inactive) | > 100 µM (inactive) | > 100 µM (inactive) | > 100 µM (inactive) | > 100 µM (inactive) | > 100 µM (inactive) | 33.8 µM (inactive) | > 100 µM (inactive) | > 100 µM (inactive) | > 100 µM (inactive) | > 100 µM (inactive) | > 100 µM (inactive) | > 100 µM (inactive) | > 100 µM (inactive) | > 100 µM (inactive)
CO[C@H]1C[C@H](O[C@H]2CC[C@]3(C=O)[C@H]4CC[C@]5(C)[C@@H](C6=CC(=O)OC6)CC[C@]5(O)[C@@H]4CC[C@]3(O)C2)O[C@H](C)[C@H]1O[C@@H]1O[C@H](CO[C@@H]2O[C@H](CO)[C@@H](O)[C@H](O)[C@H]2O)[C@@H](O)[C@H](O)[C@H]1O | < 0.0131 µM (active) | 0.0223 µM (active) | 0.158 µM (active) | 0.0405 µM | 0.0845 µM (active) | 0.0259 µM (active) | 0.147 µM (active) | 0.355 µM (active) | 0.128 µM (active) | 0.0588 µM (active) | 0.0139 µM (active) | 0.0281 µM (active) | 0.038 µM (active) | 0.0395 µM (active) | 0.349 µM (active) | 0.0543 µM (active) | 0.0188 µM (active) | 0.0593 µM (active) | 0.0279 µM (active) | 0.0658 µM (active)
O=C1NC2(CCN(CCc3ccccc3)CC2)Oc2ccccc21 | 64.6 µM (inactive) | > 100 µM (inactive) | 62.1 µM (inactive) | 46.3 µM | 24.7 µM (inactive) | > 100 µM (inactive) | 18.5 µM (inactive) | 88.3 µM (inactive) | 41.6 µM (inactive) | 33.3 µM (inactive) | 95.1 µM (inactive) | > 100 µM (inactive) | 33.9 µM (inactive) | 49.2 µM (inactive) | 73.6 µM (inactive) | > 100 µM (inactive) | 52.7 µM (inactive) | > 100 µM (inactive) | > 100 µM (inactive) | 61.9 µM (inactive)
CC(C)=CC(=O)c1[nH]c2ccccc2c1CC(=O)NCCc1cncn1C | 68.4 µM (inactive) | > 100 µM (inactive) | 34.6 µM (inactive) | > 100 µM | 36.4 µM (inactive) | 47.4 µM (inactive) | 72.3 µM (inactive) | 84.3 µM (inactive) | 50.7 µM (inactive) | > 100 µM (inactive) | 21.8 µM (inactive) | > 100 µM (inactive) | 50.2 µM (inactive) | > 100 µM (inactive) | > 100 µM (inactive) | > 100 µM (inactive) | 17.2 µM (inactive) | 85.7 µM (inactive) | 58.7 µM (inactive) | 74.5 µM (inactive)
BrC1=C(Br)C2(SCCS2)[C@H]2C[C@@H]1c1ccccc12 | > 54.1 µM (inactive) | > 91.2 µM (inactive) | 21.3 µM (inactive) | 17.8 µM | > 59.2 µM (inactive) | 55 µM (inactive) | > 79.8 µM (inactive) | 60.8 µM (inactive) | 4.07 µM (inactive) | 32.1 µM (inactive) | 13.2 µM (inactive) | 29.9 µM (inactive) | 95.5 µM (inactive) | > 100 µM (inactive) | 97.9 µM (inactive) | > 46 µM (inactive) | 9.4 µM (inactive) | 35.3 µM (inactive) | > 100 µM (inactive) | 37.8 µM (inactive)
COC(=O)c1ccc(C)cc1C1CN=NC12Cc1cc(C)ccc1C2=O (stereo not given) | 25.4 µM (inactive) | 11.8 µM (inactive) | 23.8 µM (inactive) | 5.24 µM | 21.7 µM (inactive) | 8.85 µM (inactive) | 9.31 µM (inactive) | 14 µM (inactive) | 2.37 µM (inactive) | 13.2 µM (inactive) | 5.06 µM (inactive) | 26.2 µM (inactive) | 11.5 µM (inactive) | 7.28 µM (inactive) | 23.2 µM (inactive) | 23.2 µM (inactive) | 4.41 µM (inactive) | 5.35 µM (inactive) | 22.8 µM (inactive) | 11.7 µM (inactive)
CC(C)[C@H](NC(=O)[C@@H](O)[C@H](N)Cc1ccccc1)C(=O)N[C@@H](Cc1ccccc1)C(=O)O | > 100 µM (inactive) | > 100 µM (inactive) | > 100 µM (inactive) | > 100 µM | > 100 µM (inactive) | > 100 µM (inactive) | > 100 µM (inactive) | > 100 µM (inactive) | > 100 µM (inactive) | > 100 µM (inactive) | > 100 µM (inactive) | > 100 µM (inactive) | > 100 µM (inactive) | > 100 µM (inactive) | > 100 µM (inactive) | > 100 µM (inactive) | > 100 µM (inactive) | > 100 µM (inactive) | > 100 µM (inactive) | > 100 µM (inactive)
Cc1cc2nc3[nH]nc(N)c3nc2cc1C | > 100 µM (inactive) | > 100 µM (inactive) | > 100 µM (inactive) | > 100 µM | > 100 µM (inactive) | > 100 µM (inactive) | > 100 µM (inactive) | > 100 µM (inactive) | > 100 µM (inactive) | > 100 µM (inactive) | > 100 µM (inactive) | > 100 µM (inactive) | > 100 µM (inactive) | > 100 µM (inactive) | > 100 µM (inactive) | > 100 µM (inactive) | > 100 µM (inactive) | > 100 µM (inactive) | > 100 µM (inactive) | > 100 µM (inactive)
CC(C)C(NC(=O)C(Cc1ccccc1)NC(=O)[C@H]1CCC[C@H]1NC(=O)C(N)Cc1ccc(O)cc1)C(N)=O (stereo not given in full) | > 100 µM (inactive) | > 100 µM (inactive) | > 100 µM (inactive) | > 100 µM | > 100 µM (inactive) | > 100 µM (inactive) | > 100 µM (inactive) | > 100 µM (inactive) | > 100 µM (inactive) | > 100 µM (inactive) | > 100 µM (inactive) | > 100 µM (inactive) | > 100 µM (inactive) | > 100 µM (inactive) | > 100 µM (inactive) | > 100 µM (inactive) | > 100 µM (inactive) | > 100 µM (inactive) | > 100 µM (inactive) | > 100 µM (inactive)
C/C(=N/NC(=S)N(Cc1ccccn1)Cc1ccccn1)c1cnccn1 | 0.329 µM (active) | 0.429 µM (active) | 2.69 µM (inactive) | 0.458 µM | 1.23 µM (inactive) | 0.288 µM (active) | 0.0622 µM (active) | 0.646 µM (active) | 2.67 µM (inactive) | 0.0472 µM (active) | 0.0381 µM (active) | 0.288 µM (active) | 2.49 µM (inactive) | 0.374 µM (active) | 0.721 µM (active) | 0.476 µM (active) | 0.578 µM (active) | 0.288 µM (active) | 0.071 µM (active) | 0.129 µM (active)
C[C@H]1CC[C@@H]2[C@@H](C)[C@H]3[C@H](C[C@H]4[C@@H]5CC=C6C[C@@H](O)CC[C@]6(C)[C@H]5C[C@H](O)[C@]34C)N2C1 | > 100 µM (inactive) | > 100 µM (inactive) | > 100 µM (inactive) | > 100 µM | > 100 µM (inactive) | > 100 µM (inactive) | > 100 µM (inactive) | > 100 µM (inactive) | > 100 µM (inactive) | > 100 µM (inactive) | > 100 µM (inactive) | > 100 µM (inactive) | > 100 µM (inactive) | > 100 µM (inactive) | > 100 µM (inactive) | > 100 µM (inactive) | > 100 µM (inactive) | > 100 µM (inactive) | > 100 µM (inactive) | > 100 µM (inactive)
